Test results from US20190185508A1, “DEUTERATED NUCLEOSIDE REVERSE TRANSCRIPTASE INHIBITORS” (Merck Sharp & Dohme Corp., priority 2017, published 2019).

Legend:
[1] = CTG assay: cytotoxicity in CellTiter-Glo Luminescent Cell Viability Assay; type: cell-based; conditions: MT4-GFP cells, 10% normal human serum, 48 h incubation
Protocol: Assessing Cytotoxicity in CellTiter-Glo Luminescent Cell Viability Assay (CTG).
MT4-GFP cells were seeded in RPMI 1640 supplemented with 10% fetal bovine serum, 100 U/mL penicillin/streptomycin overnight at 37° C./5% CO2/90% relative humidity. Cells were then washed and resuspended in RPMI 1640 containing 10% normal human serum at a density of 0.8×10^5 cells/mL. Compound plates were prepared by dispensing compounds dissolved in DMSO into wells of 384 well solid black plates (Corning 3571) using an ECHO acoustic dispenser (0.2 μl/well). […] Controls included DMSO. Cells were added (50 μL/well) to compound plates and were maintained at 37° C./5% CO2/90% relative humidity. CTG reagent (Promega, G7573) was added to the cell plates after 48 h incubation according to the manufacturer's description. Luminescence signals were recorded on EnVision plate reader (PerkinElmer). CC50s were determined by non-linear 4-parameter curve fitting. The resulting data is shown in Table 3 with the marketed HIV nucleoside reverse transcriptase inhibitor AZT (azidothymidine, zidovudine) included as a control.

[2] = tested on: HIV-1 (H9IIIB virus) replication in MT4-GFP cells; experiment: Viking assay: antiviral potency in a multiple round HIV-1 infection assay; type: cell-based; conditions: Human immunodeficiency virus 1; 10% normal human serum; MT4-GFP cells infected with H9IIIB virus; inhibition of reproductive ratio R0; read-out: Viking, IC50 (10%NHS)
Protocol: Assessing antiviral potency in a multiple round HIV-1 infection assay. HIV-1 replication was monitored using MT4-gag-GFP clone D3 (hereafter designate MT4-GFP), which are MT-4 cells modified to harbor a GFP reporter gene, the expression of which is dependent on the HIV-1 expressed proteins tat and rev. Productive infection of an MT4-GFP cell with HIV-1 results in GFP expression approximately 24 h post-infection.
MT4-GFP cells were maintained at 37° C./5% CO2/90% relative humidity in RPMI 1640 supplemented with 10% fetal bovine serum, 100 U/mL penicillin/streptomycin, and 400 μg/mL G418 to maintain the reporter gene. For infections, MT4-GFP cells were placed in the same medium lacking G418 and infected overnight with H9IIIB virus at an approximate multiplicity of infection of 0.01 in the same incubation conditions. Cells were then washed and re-suspended in either RPMI 1640 containing 10% or 50% normal human serum at 1.6×10^5 cells/mL. Compound plates were prepared by dispensing compounds dissolved in DMSO into wells of 384 well poly D lysine-coated plates (0.2 μl/well) using an ECHO acoustic dispenser. Each compound was tested in a 10 point serial 3-fold dilution (typical final concentrations: 8.4 μM-0.43 nM). Controls included no inhibitor (DMSO only) and a combination of three antiviral agents (efavirenz, indinavir, and an integrase strand transfer inhibitor at final concentrations of 4 μM each). Cells were added (50 μL/well) to compound plates and the infected cells were maintained at 37° C./5% CO2/90% relative humidity.
Infected cells were quantified at two time points, ˜48 h and ˜72 h post-infection, by counting the number of green cells in each well using an Acumen eX3 scanner. The increase in the number of green cells over ˜24 h period gives the reproductive ratio, R0, which is typically 5-15 and has been shown experimentally to be in logarithmic phase (data not shown). Inhibition of R0 is calculated for each well, and IC50s determined by non-linear 4-parameter curve fitting.

Row | Structure (SMILES) | CC50 at 48 h [1] [nM] | IC50 [2] [nM]
1 | [2H][C@@]1(O)C[C@H](n2ccc3c(N)nc(Cl)nc32)O[C@]1(C#C)CO [Example 5, (2R,3R,5R)-5-(4-amino-2-chloro-7H-pyrrolo[2,3-d]pyrimidin-7-yl)-2-ethynyl(3-^2H)-2-(hydroxymethyl)-tetrahydrofuran-3-ol] | > 42000 | > 42000
2 | [2H]C([2H])(O)[C@@]1(C#C)O[C@@H](n2cnc3c(N)nc(F)nc32)C[C@@H]1O [Example 8, [(2R,3S,5R)-5-(6-amino-2-fluoro-9H-purin-9-yl)-3-oxhydryl-2-ethynyloxolan-2-yl](^2H2)methanol] | > 42000 | 1.1
3 | [2H]C#C[C@]1(CO)O[C@@H](n2cnc3c(N)nc(F)nc32)C[C@@H]1O [Example 9, (2R,3S,5R)-5-(6-amino-2-fluoro-9H-purin-9-yl)-2-(^2H)ethynyl-2-(hydroxymethyl)oxolan-3-ol] | > 42000 | 0.6
4 | [2H]C(O)[C@@]1(C#C)O[C@@H](n2ccc3c(N)nc(Cl)nc32)C[C@@H]1O (stereo partly drawn) [Example 10, (2R,3S,5R)-5-{4-amino-2-chloro-7H-pyrrolo[2,3-d]pyrimidin-7-yl}-2-ethynyl-2-[hydroxy(^2H)methyl]oxolan-3-ol] | > 42000 | 5.5
5 | [2H]C([2H])(O)[C@@]1(C#C)O[C@@H](n2ccc3c(N)nc(Cl)nc32)C[C@@H]1O [Example 11, (2R,3S,5R)-5-{4-amino-2-chloro-7H-pyrrolo[2,3-d]pyrimidin-7-yl}-2-ethynyl-2-[hydroxy(^2H2)methyl]oxolan-3-ol] | > 42000 | 5.6
6 | [2H]C#C[C@]1(CO)O[C@@H](n2ccc3c(N)nc(Cl)nc32)C[C@@H]1O [Example 12, (2R,3S,5R)-5-{4-amino-2-chloro-7H-pyrrolo[2,3-d]pyrimidin-7-yl}-2-(^2H)ethynyl-2-(hydroxymethyl)oxolan-3-ol] | > 42000 | 4.6
7 | [2H][C@]1(n2cnc3c(N)nc(F)nc32)C[C@H](O)[C@@](C#C)(CO)O1 [Example 13, (2R,3S,5R)-5-(6-amino-2-fluoro-9H-purin-9-yl)-2-ethynyl-2-(hydroxymethyl)tetrahydrofuran-5-^2H-3-ol] | > 42000 | 0.2
8 | [2H]C(O)[C@@]1(C#C)O[C@@H](n2cnc3c(N)nc(F)nc32)C[C@@H]1O (stereo partly drawn) [Example 7, [(2R,3S,5R)-5-(6-amino-2-fluoro-9H-purin-9-yl)-3-oxhydryl-2-ethynyloxolan-2-yl](^2H)-methanol] | > 42000 | 0.7
9 | [2H][C@]1(O)C[C@H](n2cnc3c(N)nc(F)nc32)O[C@]1(C#C)CO [Example 3, (2R,3S,5R)-5-(6-amino-2-fluoro-9H-purin-9-yl)-2-ethynyl-2-(hydroxymethyl)(3-^2H)oxolan-3-ol] | > 42000 | 1.2
10 | [2H][C@@]1(O)C[C@H](n2cc(F)c3c(N)ncnc32)O[C@]1(C#C)CO [Example 1] | > 42000 | 2310
11 | [2H][C@]1(n2ccc3c(N)nc(Cl)nc32)C[C@H](O)[C@@](C#C)(CO)O1 [Example 14, (2R,3S,5R)-5-(4-amino-2-chloro-7H-pyrrolo[2,3-d]pyrimidin-7-yl)-2-ethynyl-2-(hydroxymethyl)tetrahydrofuran-5-^2H-3-ol] | > 42000 | 0.3
12 | Cc1cn([C@H]2C[C@H](N=[N+]=[N-])[C@@H](CO)O2)c(=O)[nH]c1=O [AZT, 3′-azido-3′-deoxythymidine, reference compound] | > 8400 | 37
13 | [2H][C@@]1(O)C[C@H](n2cnc3c(N)nc(F)nc32)O[C@]1(C#C)CO [Example 4, (2R,3R,5R)-5-(6-amino-2-fluoro-9H-purin-9-yl)-2-ethynyl-2-(hydroxymethyl)(3-^2H)oxolan-3-ol] | > 42000 | 1190
14 | [2H][C@]1(O)C[C@H](n2cc(F)c3c(N)ncnc32)O[C@]1(C#C)CO [Example 2, (2R,3S,5R)-5-{4-amino-5-fluoro-7H-pyrrolo[2,3-d]pyrimidin-7-yl}-2-ethynyl-2-(hydroxymethyl)(3-^2H)oxolan-3-ol] | 31900 | 3.1
15 | [2H][C@]1(O)C[C@H](n2ccc3c(N)nc(Cl)nc32)O[C@]1(C#C)CO [Example 6, (2R,3S,5R)-5-(4-amino-2-chloro-7H-pyrrolo[2,3-d]pyrimidin-7-yl)-2-ethynyl(3-^2H)-2-(hydroxymethyl)-tetrahydrofuran-3-ol] | > 42000 | 10.6
